Experimental data from patent US9593156B2 (priority 2012, dated 2017).

Assays:
insulin receptor = insulin receptor (Homo sapiens, UniProt P06213); assay: Insulin receptor competition binding assay (scintillation proximity); design: expressed in transfected cells; plasma membrane fragments
IGF-1 receptor = IGF-1 receptor (Homo sapiens, UniProt P08069); assay: IGF-1 receptor competition binding assay (scintillation proximity); design: expressed in transfected cells; plasma membrane fragments; conditions: Table 9; IGF-1 Receptor
Sequence of IGF-1 receptor (P08069 31-736 limits assumed): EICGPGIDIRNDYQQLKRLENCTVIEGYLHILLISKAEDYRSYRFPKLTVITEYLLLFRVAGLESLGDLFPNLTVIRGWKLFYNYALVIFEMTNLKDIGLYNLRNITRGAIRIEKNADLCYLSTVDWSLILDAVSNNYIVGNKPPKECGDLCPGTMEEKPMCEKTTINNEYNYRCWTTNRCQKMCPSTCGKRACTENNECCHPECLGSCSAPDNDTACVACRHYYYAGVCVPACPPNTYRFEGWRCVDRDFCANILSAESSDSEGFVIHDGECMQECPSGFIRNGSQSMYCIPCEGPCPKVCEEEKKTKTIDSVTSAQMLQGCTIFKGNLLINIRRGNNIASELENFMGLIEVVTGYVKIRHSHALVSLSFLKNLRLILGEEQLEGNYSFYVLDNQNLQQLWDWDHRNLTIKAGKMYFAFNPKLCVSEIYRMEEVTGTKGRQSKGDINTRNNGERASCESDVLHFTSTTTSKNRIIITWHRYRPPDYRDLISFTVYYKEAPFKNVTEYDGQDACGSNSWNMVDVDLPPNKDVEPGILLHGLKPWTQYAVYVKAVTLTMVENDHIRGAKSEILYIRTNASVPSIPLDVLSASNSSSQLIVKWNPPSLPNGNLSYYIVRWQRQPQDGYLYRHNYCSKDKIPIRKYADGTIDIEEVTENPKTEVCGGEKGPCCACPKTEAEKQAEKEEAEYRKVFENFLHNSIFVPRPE
Sequence of IGF-1 receptor (P08069 741-1367 partner limits assumed): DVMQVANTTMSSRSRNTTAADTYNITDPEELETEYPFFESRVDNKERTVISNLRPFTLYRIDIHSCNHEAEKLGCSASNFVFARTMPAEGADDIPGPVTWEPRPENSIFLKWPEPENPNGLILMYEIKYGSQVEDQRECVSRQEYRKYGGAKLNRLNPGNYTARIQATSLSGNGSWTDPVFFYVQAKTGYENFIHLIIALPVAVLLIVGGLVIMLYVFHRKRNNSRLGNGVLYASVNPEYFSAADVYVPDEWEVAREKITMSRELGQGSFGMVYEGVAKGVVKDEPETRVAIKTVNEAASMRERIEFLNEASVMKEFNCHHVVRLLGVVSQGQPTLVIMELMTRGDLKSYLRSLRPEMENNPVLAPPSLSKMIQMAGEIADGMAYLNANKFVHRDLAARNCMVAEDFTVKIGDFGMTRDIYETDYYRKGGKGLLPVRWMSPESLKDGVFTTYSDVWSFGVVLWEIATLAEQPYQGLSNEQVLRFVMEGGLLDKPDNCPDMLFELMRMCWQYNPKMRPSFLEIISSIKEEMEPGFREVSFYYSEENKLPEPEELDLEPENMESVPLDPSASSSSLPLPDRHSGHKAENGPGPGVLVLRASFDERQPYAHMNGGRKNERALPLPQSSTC

Sequence of insulin receptor (P06213 28-758 limits assumed): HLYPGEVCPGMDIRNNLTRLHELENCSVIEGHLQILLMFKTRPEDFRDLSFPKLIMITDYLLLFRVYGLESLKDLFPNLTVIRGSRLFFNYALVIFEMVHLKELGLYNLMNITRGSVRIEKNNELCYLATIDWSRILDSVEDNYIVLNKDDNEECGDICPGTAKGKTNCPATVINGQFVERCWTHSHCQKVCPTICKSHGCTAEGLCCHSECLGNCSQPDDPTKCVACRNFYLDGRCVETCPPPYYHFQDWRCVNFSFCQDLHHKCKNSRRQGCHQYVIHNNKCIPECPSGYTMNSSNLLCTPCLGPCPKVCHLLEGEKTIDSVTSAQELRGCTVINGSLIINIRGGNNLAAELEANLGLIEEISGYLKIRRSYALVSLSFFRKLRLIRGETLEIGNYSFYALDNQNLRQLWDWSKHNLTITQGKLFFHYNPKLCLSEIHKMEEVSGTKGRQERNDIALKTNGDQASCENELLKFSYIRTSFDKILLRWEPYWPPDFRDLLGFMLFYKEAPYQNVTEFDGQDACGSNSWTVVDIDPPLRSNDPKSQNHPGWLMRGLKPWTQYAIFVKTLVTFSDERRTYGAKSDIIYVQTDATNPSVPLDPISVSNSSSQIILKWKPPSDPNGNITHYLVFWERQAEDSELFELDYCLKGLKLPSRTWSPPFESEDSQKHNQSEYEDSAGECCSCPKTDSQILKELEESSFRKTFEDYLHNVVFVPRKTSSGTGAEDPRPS
Sequence of insulin receptor (P06213 763-1382 partner limits assumed): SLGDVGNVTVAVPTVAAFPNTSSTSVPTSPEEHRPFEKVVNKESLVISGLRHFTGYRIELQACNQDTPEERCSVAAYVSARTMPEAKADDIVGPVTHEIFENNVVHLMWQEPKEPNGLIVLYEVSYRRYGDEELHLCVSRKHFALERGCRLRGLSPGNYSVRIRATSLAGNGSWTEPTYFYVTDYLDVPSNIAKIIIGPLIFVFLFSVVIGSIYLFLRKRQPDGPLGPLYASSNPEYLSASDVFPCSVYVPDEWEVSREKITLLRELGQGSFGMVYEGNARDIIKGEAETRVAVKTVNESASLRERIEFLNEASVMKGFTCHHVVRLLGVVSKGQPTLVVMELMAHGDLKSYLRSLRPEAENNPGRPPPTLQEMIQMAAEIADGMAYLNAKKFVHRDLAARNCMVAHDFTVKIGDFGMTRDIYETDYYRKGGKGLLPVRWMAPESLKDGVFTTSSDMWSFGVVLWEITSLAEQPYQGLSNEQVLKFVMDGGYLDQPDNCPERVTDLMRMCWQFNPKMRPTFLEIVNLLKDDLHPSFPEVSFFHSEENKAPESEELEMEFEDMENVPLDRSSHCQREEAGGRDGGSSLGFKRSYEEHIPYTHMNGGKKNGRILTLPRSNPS

CC[C@H](C)[C@H](NC(=O)CN)C(=O)N[C@H](C(=O)N[C@@H](CC(=O)O)C(=O)N[C@@H](CCC(=O)O)C(=O)N[C@H]1CSSC[C@@H]2NC(=O)[C@H](CO)NC(=O)[C@H](C)NC(=O)[C@H](Cc3c[nH]cn3)NC(=O)[C@H](CSSC[C@H](NC(=O)[C@H](CC(C)C)NC(=O)[C@H](Cc3c[nH]cn3)NC(=O)[C@H](CCC(=O)O)NC(=O)[C@@H]3CCCN3C(=O)CN)C(=O)NCC(=O)N[C@@H](C)C(=O)N[C@@H](CC(=O)O)C(=O)N[C@@H](CC(C)C)C(=O)N[C@@H](C(C)C)C(=O)N[C@@H](CC(=O)O)C(=O)N[C@@H](C)C(=O)N[C@@H](CC(C)C)C(=O)N[C@@H](Cc3ccc(O)cc3)C(=O)N[C@@H](CC(C)C)C(=O)N[C@@H](C(C)C)C(=O)N[C@H](C(=O)NCC(=O)N[C@@H](CC(=O)O)C(=O)N[C@@H](C)C(=O)NCC(=O)N[C@@H](Cc3ccccc3)C(=O)N[C@@H](Cc3ccc(O)cc3)C(N)=O)CSSC[C@@H](C(=O)N[C@@H](CC(N)=O)C(=O)O)NC(=O)[C@H](Cc3ccc(O)cc3)NC(=O)[C@H](CC[S+](C)[O-])NC(=O)[C@H](CCC(=O)O)NC(=O)[C@H](CC(C)C)NC(=O)[C@H](CCCNC(=N)N)NC(=O)[C@H](CCCNC(=N)N)NC(=O)[C@H](CC(C)C)NC(=O)[C@H](CC(=O)O)NC2=O)NC1=O)C(C)C (stereo partly drawn)
% insulin (in test) (insulin receptor): 400.7%

CC[C@H](C)[C@H](NC(=O)CNC(=O)[C@@H]1CCCN1C(=O)[C@H](C)N)C(=O)N[C@H](C(=O)N[C@@H](CC(=O)O)C(=O)N[C@@H](CCC(=O)O)C(=O)N[C@H]1CSSC[C@@H]2NC(=O)[C@H](CO)NC(=O)[C@H](CCCNC(=N)N)NC(=O)[C@H](Cc3ccccc3)NC(=O)[C@H](CSSC[C@H](NC(=O)[C@H](CC(C)C)NC(=O)[C@@H](NC(=O)[C@H](CCC(=O)O)NC(=O)[C@@H]3CCCN3C(=O)CN)[C@@H](C)O)C(=O)NCC(=O)N[C@@H](C)C(=O)N[C@@H](CCC(=O)O)C(=O)N[C@@H](CC(C)C)C(=O)N[C@@H](C(C)C)C(=O)N[C@@H](CC(=O)O)C(=O)N[C@@H](C)C(=O)N[C@@H](CC(C)C)C(=O)N[C@@H](Cc3ccc(O)cc3)C(=O)N[C@@H](CC(C)C)C(=O)N[C@@H](C(C)C)C(=O)N[C@H](C(=O)NCC(=O)N[C@@H](CC(=O)O)C(=O)N[C@@H](CCCNC(=N)N)C(=O)NCC(=O)N[C@@H](Cc3ccccc3)C(=O)N[C@@H](Cc3ccc(O)cc3)C(=O)N[C@@H](Cc3ccccc3)C(=O)N[C@@H](CC(N)=O)C(=O)N[C@@H](CCCCN)C(=O)N3CCC[C@H]3C(=O)N[C@H](C(N)=O)[C@@H](C)O)CSSC[C@@H](C(=O)N[C@@H](C)C(N)=O)NC(=O)[C@H](Cc3ccc(O)cc3)NC(=O)[C@H](CCSC)NC(=O)[C@H](CCC(=O)O)NC(=O)[C@H](CC(C)C)NC(=O)[C@H](CCCNC(=N)N)NC(=O)[C@H](CCCNC(=N)N)NC(=O)[C@H](CC(C)C)NC(=O)[C@H](CC(=O)O)NC2=O)NC1=O)C(C)C [IGF1 (Y^B16L^B17) (AlaPro)^A-1,0]
% of Insulin Activity (insulin receptor; Table 8): 37.12%

CC[C@H](C)[C@H](NC(=O)CN)C(=O)N[C@H](C(=O)N[C@@H](CC(=O)O)C(=O)N[C@@H](CCC(=O)O)C(=O)N[C@H]1CSSC[C@@H]2NC(=O)[C@H](CO)NC(=O)[C@H](CCCNC(=N)N)NC(=O)[C@H](Cc3ccccc3)NC(=O)[C@H](CSSC[C@H](NC(=O)[C@H](CC(C)C)NC(=O)[C@@H](NC(=O)[C@H](CCC(=O)O)NC(=O)[C@@H]3CCCN3C(=O)CN)[C@@H](C)O)C(=O)NCC(=O)N[C@@H](C)C(=O)N[C@@H](CCC(=O)O)C(=O)N[C@@H](CC(C)C)C(=O)N[C@@H](C(C)C)C(=O)N[C@@H](CC(=O)O)C(=O)N[C@@H](C)C(=O)N[C@@H](CC(C)C)C(=O)N[C@@H](Cc3ccc(O)cc3)C(=O)N[C@@H](CC(C)C)C(=O)N[C@@H](C(C)C)C(=O)N[C@H](C(=O)NCC(=O)N[C@@H](CC(=O)O)C(=O)N[C@@H](CCCNC(=N)N)C(=O)NCC(=O)N[C@@H](Cc3ccccc3)C(=O)N[C@@H](Cc3ccc(O)cc3)C(=O)N[C@@H](Cc3ccccc3)C(=O)N[C@@H](CC(N)=O)C(=O)N[C@@H](CCCCN)C(=O)N3CCC[C@H]3C(=O)N[C@H](C(N)=O)[C@@H](C)O)CSSC[C@@H](C(=O)N[C@@H](C)C(N)=O)NC(=O)[C@H](Cc3ccc(N)cc3)NC(=O)[C@H](CCSC)NC(=O)[C@H](CCC(=O)O)NC(=O)[C@H](CC(C)C)NC(=O)[C@H](CCCNC(=N)N)NC(=O)[C@H](CCCNC(=N)N)NC(=O)[C@H](CC(C)C)NC(=O)[C@H](CC(=O)O)NC2=O)NC1=O)C(C)C [IGF1 (Y^B16L^B17) (p-NH2—F)^A19 amide]
% of Insulin Activity (insulin receptor; Table 7): 22%

CC[C@H](C)[C@H](NC(=O)CN)C(=O)N[C@H](C(=O)N[C@@H](CC(=O)O)C(=O)N[C@@H](CCC(=O)O)C(=O)N[C@H]1CSSC[C@@H]2NC(=O)[C@H](CO)NC(=O)[C@H](CCCNC(=N)N)NC(=O)[C@H](Cc3ccccc3)NC(=O)[C@H](CSSC[C@H](NC(=O)[C@H](CC(C)C)NC(=O)[C@@H](NC(=O)[C@H](CCC(=O)O)NC(=O)[C@@H]3CCCN3C(=O)CN)[C@@H](C)O)C(=O)NCC(=O)N[C@@H](C)C(=O)N[C@@H](CCC(=O)O)C(=O)N[C@@H](CC(C)C)C(=O)N[C@@H](C(C)C)C(=O)N[C@@H](CC(=O)O)C(=O)N[C@@H](C)C(=O)N[C@@H](CC(C)C)C(=O)N[C@@H](Cc3ccc(O)cc3)C(=O)N[C@@H](CC(C)C)C(=O)N[C@@H](C(C)C)C(=O)N[C@H](C(=O)NCC(=O)N[C@@H](CC(=O)O)C(=O)N[C@@H](CCCNC(=N)N)C(=O)NCC(=O)N[C@@H](Cc3ccccc3)C(=O)N[C@@H](Cc3ccc(O)cc3)C(=O)N[C@@H](Cc3ccccc3)C(=O)N[C@@H](CC(N)=O)C(=O)N[C@@H](CCCCN)C(=O)N3CCC[C@H]3C(=O)N[C@H](C(N)=O)[C@@H](C)O)CSSC[C@@H](C(=O)N[C@@H](C)C(N)=O)NC(=O)[C@H](Cc3ccc(O)cc3)NC(=O)[C@H](CCSC)NC(=O)[C@H](CCC(=O)O)NC(=O)[C@H](CC(C)C)NC(=O)[C@H](CCCNC(=N)N)NC(=O)[C@H](CCCNC(=N)N)NC(=O)[C@H](CC(C)C)NC(=O)[C@H](CC(=O)O)NC2=O)NC1=O)C(C)C [IGF1 (Y^B16L^B17)]
% of Insulin Activity (insulin receptor; Table 6): 262%

CC[C@H](C)[C@H](NC(=O)CN)C(=O)N[C@H](C(=O)N[C@@H](CC(=O)O)C(=O)N[C@@H](CCC(=O)O)C(=O)N[C@H]1CSSC[C@@H]2NC(=O)[C@H](CO)NC(=O)[C@H](CCCNC(=N)N)NC(=O)[C@H](Cc3ccccc3)NC(=O)[C@H](CSSC[C@H](NC(=O)[C@H](CC(C)C)NC(=O)[C@H](Cc3c[nH]cn3)NC(=O)[C@H](CCC(N)=O)NC(=O)[C@H](CC(N)=O)NC(=O)[C@@H](NC(=O)[C@@H](N)Cc3ccccc3)C(C)C)C(=O)NCC(=O)N[C@@H](CO)C(=O)N[C@@H](Cc3c[nH]cn3)C(=O)N[C@@H](CC(C)C)C(=O)N[C@@H](C(C)C)C(=O)N[C@@H](CCC(=O)O)C(=O)N[C@@H](C)C(=O)N[C@@H](CC(C)C)C(=O)N[C@@H](Cc3ccc(O)cc3)C(=O)N[C@@H](CC(C)C)C(=O)N[C@@H](C(C)C)C(=O)N[C@H](C(=O)NCC(=O)N[C@@H](CC(=O)O)C(=O)N[C@@H](CCCNC(=N)N)C(=O)NCC(=O)N[C@@H](Cc3ccccc3)C(=O)N[C@@H](Cc3ccc(O)cc3)C(=O)N[C@@H](Cc3ccccc3)C(=O)N[C@@H](CC(N)=O)C(=O)N[C@@H](CCCCN)C(=O)N3CCC[C@H]3C(=O)N[C@H](C(N)=O)[C@@H](C)O)CSSC[C@@H](C(=O)N[C@@H](C)C(N)=O)NC(=O)[C@H](Cc3ccc(O)cc3)NC(=O)[C@H](CCSC)NC(=O)[C@H](CCC(=O)O)NC(=O)[C@H](CC(C)C)NC(=O)[C@H](CCCNC(=N)N)NC(=O)[C@H](CCCNC(=N)N)NC(=O)[C@H](CC(C)C)NC(=O)[C@H](CC(=O)O)NC2=O)NC1=O)C(C)C [IGF-1 A:In (1-17)-IGF-1 B(18-30)]
IC80 (IGF-1 receptor): 62.5 nM

CC[C@H](C)[C@H](NC(=O)CN)C(=O)N[C@H](C(=O)N[C@@H](CC(=O)O)C(=O)N[C@@H](CCC(=O)O)C(=O)N[C@H]1CSSC[C@@H]2NC(=O)[C@H](CO)NC(=O)[C@H](CCCNC(=N)N)NC(=O)[C@H](Cc3ccccc3)NC(=O)[C@H](CSSC[C@H](NC(=O)[C@H](CC(C)C)NC(=O)[C@H](Cc3c[nH]cn3)NC(=O)[C@H](CCC(N)=O)NC(=O)[C@H](CC(N)=O)NC(=O)[C@@H](NC(=O)[C@@H](N)Cc3ccccc3)C(C)C)C(=O)NCC(=O)N[C@@H](C)C(=O)N[C@@H](CCC(=O)O)C(=O)N[C@@H](CC(C)C)C(=O)N[C@@H](C(C)C)C(=O)N[C@@H](CC(=O)O)C(=O)N[C@@H](C)C(=O)N[C@@H](CC(C)C)C(=O)N[C@@H](Cc3ccc(O)cc3)C(=O)N[C@@H](CC(C)C)C(=O)N[C@@H](C(C)C)C(=O)N[C@H](C(=O)NCC(=O)N[C@@H](CC(=O)O)C(=O)N[C@@H](CCCNC(=N)N)C(=O)NCC(=O)N[C@@H](Cc3ccccc3)C(=O)N[C@@H](Cc3ccc(O)cc3)C(=O)N[C@@H](Cc3ccccc3)C(=O)N[C@@H](CC(N)=O)C(=O)N[C@@H](CCCCN)C(=O)N3CCC[C@H]3C(=O)N[C@H](C(N)=O)[C@@H](C)O)CSSC[C@@H](C(=O)N[C@@H](C)C(N)=O)NC(=O)[C@H](Cc3ccc(O)cc3)NC(=O)[C@H](CCSC)NC(=O)[C@H](CCC(=O)O)NC(=O)[C@H](CC(C)C)NC(=O)[C@H](CCCNC(=N)N)NC(=O)[C@H](CCCNC(=N)N)NC(=O)[C@H](CC(C)C)NC(=O)[C@H](CC(=O)O)NC2=O)NC1=O)C(C)C [IGF-1 A:In B(1-5)-IGF-1 B(YL) (6-30)]
% IGF-1 (in test) (IGF-1 receptor): 3.6%
